Laboratory results: patent US20250099420A1, “SMALL MOLECULE MODULATORS OF GPR139 COMPLEX” (University of Florida Research Foundation, Incorporated, priority 2022, published 2025)
Like-named read-outs stand apart in the source and are kept apart here.

Columns and labels:
parental HEK cells = test: HEK parental Agonist Counterscreen Assay (non-transfected cells); type: cell-based; details: for Averaged Max % Response (±St. Dev.): activity relative to known control
From the text: The high control for the agonist counterscreen was Forskolin not acetylcholine.

GPR139 = target: T1, GPR139 (Homo sapiens, UniProt Q6DWJ6); test: GPR139 Agonist titration / agonist counterscreen assay (calcium detection, HEK-GPR139 cells); type: cell-based; parameters: expressed in transfected cells; host or cells: HEK Aequorin cells, Maxcyte transient transfection; details: GPR139 Agonist Activity; for EC50: read-out: EC50; for Averaged Max % Response (±St. Dev.): activity relative to known control
T1 sequence (Q6DWJ6 1-353): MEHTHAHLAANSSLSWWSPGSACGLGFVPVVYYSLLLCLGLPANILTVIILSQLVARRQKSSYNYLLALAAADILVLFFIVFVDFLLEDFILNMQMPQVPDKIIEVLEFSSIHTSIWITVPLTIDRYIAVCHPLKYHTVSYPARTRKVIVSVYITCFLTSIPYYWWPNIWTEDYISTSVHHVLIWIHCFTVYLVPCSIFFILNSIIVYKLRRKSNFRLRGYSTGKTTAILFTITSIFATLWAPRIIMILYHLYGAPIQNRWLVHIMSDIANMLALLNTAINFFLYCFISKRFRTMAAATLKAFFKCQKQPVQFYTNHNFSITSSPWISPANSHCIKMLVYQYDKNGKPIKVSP
Description: GPR activity was assessed using a calcium detection assay. […] Negative control samples were treated with DMSO. […] Intracellular calcium was measured using Calcium 5.

[1] = Homo sapiens, HEK293, HEK Agonist Activity section of Table 4 (parental HEK counterscreen)
[2] = Homo sapiens, HEK293, HEK Agonist Activity, parental non-transfected HEK cells
[3] = values printed in E-notation without unit
[4] = HEK Agonist Activity section of Table 4 (parental HEK counterscreen)

| Structure (SMILES) | Lipophilic Efficiency (logD) (parental HEK cells; HEK Agonist Activity section) | Lipophilic Efficiency (logP) (parental HEK cells; HEK Agonist Activity section) | Averaged Max % Response (±St. Dev.) (parental HEK cells; HEK Agonist Activity section) [%] | EC50 (parental HEK cells; [1]) [µM] | Efficiency Ligand (GPR139) | Hill Slope (GPR139) | Lipophilic Efficiency (logD) (GPR139) | Lipophilic Efficiency (logP) (GPR139) | EC50 (GPR139; HEK-GPR139 cells) [µM] | Averaged Max % Response (±St. Dev.) (GPR139) [%] | Lipophilic Efficiency (logD) (parental HEK cells; HEK Agonist Activity) | Lipophilic Efficiency (logP) (parental HEK cells; HEK Agonist Activity) | Averaged Max % Response (±St. Dev.) (parental HEK cells; HEK Agonist Activity) [%] | EC50 (parental HEK cells; [2]) [µM] | Lipophilic Efficiency (logD) (GPR139; based on logD) | Lipophilic Efficiency (logP) (GPR139; based on logP) | Hill Slope (GPR139; fitted dose-response curve) | Efficiency Ligand (GPR139; ligand efficiency) | EC50 (GPR139; [3]) [µM] | EC50 (parental HEK cells; [4]) [µM] |
| --- | --- | --- | --- | --- | --- | --- | --- | --- | --- | --- | --- | --- | --- | --- | --- | --- | --- | --- | --- | --- |
| CCCCC(O)CCNC(=O)C1CC(=O)N(CCc2ccc(C)cc2)C1 (stereo not drawn) [SR-01000145701] | 4.13 | 2.54 | 10.54 ± 1.83 | > 14.1 | 0.34 | 0.99 | 5.67 | 4.07 | 0.414 | 114.02 ± 14.51 | – | – | – | – | – | – | – | – | – | – |
| COc1ccc(C2=NN(CC(=O)NCCCN(C)c3ccccc3)C(=O)CC2)cc1 [SR-01000145949] | – | – | – | – | – | – | – | – | – | 122.18 ± 22.07 | 2.92 | 2.92 | 2.57 ± 15.21 | > 14.1 | 5.74 | 5.73 | 1.04 | 0.36 | 0.0215 | – |
| CN(C)c1ccc(NC(=O)Cn2cc(C=O)c3ccccc32)cc1 [SR-01000146281] | 1.82 | 1.82 | 8.26 ± 4.28 | – | 0.37 | 1.64 | 3.32 | 3.32 | 0.449 | 89.20 ± 13.55 | – | – | – | – | – | – | – | – | – | > 14.1 |
| CC1CCCC(NC(=O)CN2CCCN(Cc3ccc(F)cc3Cl)C2=O)C1C (stereo not drawn) [SR-01000146420] | – | – | – | – | – | – | – | – | – | 113.46 ± 20.46 | 1.61 | 1.61 | 20.27 ± 3.59 | > 14.1 | 4.29 | 4.29 | 1.05 | 0.38 | 0.0296 | – |
| O=C(CN1CCCN(Cc2ccc(F)cc2Cl)C1=O)NC1CCCCCC1 [SR-01000146442] | – | – | – | – | – | – | – | – | – | 108.38 ± 13.78 | 1.82 | 1.82 | −6.48 ± 10.66 | > 14.1 | 4.80 | 4.80 | 0.79 | 0.41 | 0.0149 | – |
| Cc1ccc(CN2CCCN(CC(=O)NC3CCCCCCC3)C2=O)c(Cl)c1 [SR-01000146444] | 1.38 | 1.38 | 20.98 ± 2.11 | > 14.1 | – | – | – | – | – | 112.24 ± 16.06 | – | – | – | – | 3.54 | 3.54 | 0.93 | 0.35 | – | – |
| O=C(CN1CCCN(Cc2ccc(F)cc2Cl)C1=O)NC1CCCC1 [SR-01000146446] | 2.71 | 2.71 | −2.89 ± 4.65 | – | 0.37 | 0.77 | 4.40 | 4.40 | 0.289 | 113.08 ± 17.13 | – | – | – | – | – | – | – | – | – | > 14.1 |
| O=C(CN1CCCN(Cc2ccc(F)cc2Cl)C1=O)NC1CCCCC1 [SR-01000146448] | 2.27 | 2.27 | 10.11 ± 11.28 | – | 0.35 | 0.92 | 3.97 | 3.97 | 0.281 | 112.56 ± 16.12 | – | – | – | – | – | – | – | – | – | > 14.1 |
| O=C(CC1Nc2ccccc2NC1=O)NCC1COc2ccccc2O1 (stereo not drawn) [SR-01000146516] | 3.75 | 3.75 | −2.96 ± 7.51 | > 14.1 | – | – | – | – | – | 88.18 ± 13.52 | – | – | – | – | 5.60 | 5.60 | 0.77 | 0.36 | 0.196 | – |
| Cc1ccc(CN2CCN(CC(=O)N3CC(C)CC(C)C3)C2=O)cc1 (stereo not drawn) [SR-01000150389] | 2.56 | 2.56 | 0.25 ± 10.83 | – | – | – | – | – | – | 112.97 ± 21.84 | – | – | – | – | 4.43 | 4.43 | 0.95 | 0.38 | 0.189 | > 14.1 |
| CCN(CCCNC(=O)CN1CCC(Cc2ccccc2C)C1=O)c1cccc(C)c1 (stereo not drawn) [SR-01000150393] | 1.45 | 1.43 | 10.10 ± 9.60 | > 14.1 | – | – | – | – | – | 97.57 ± 16.88 | – | – | – | – | 3.55 | 3.54 | 1.18 | 0.31 | – | – |
| O=C(CC1CCN(Cc2ccccc2O)C1=O)C1CCC(c2cccc(O)c2)C(O)C1 (stereo not drawn) [SR-01000151350] | 1.47 | 1.47 | 12.46 ± 7.98 | > 14.1 | 0.29 | 1.51 | 3.10 | 3.10 | 0.328 | 101.74 ± 19.26 | – | – | – | – | – | – | – | – | – | – |
| Cc1ccc(CC2CCC(CC(=O)CC3CCCCCCC3)C2=O)cc1 (stereo not drawn) [SR-01000151470] | 1.44 | 1.44 | −9.17 ± 11.99 | > 14.1 | 0.31 | 1.14 | 2.62 | 2.62 | – | 78.27 ± 16.46 | – | – | – | – | – | – | – | – | – | – |
| O=C(CCc1nc2cccnc2n1Cc1cccs1)NCc1ccc2c(c1)OCO2 [SR-01000151666] | 1.87 | 1.87 | −3.95 ± 11.76 | > 14.1 | – | – | – | – | – | 107.14 ± 25.50 | – | – | – | – | 4.24 | 4.24 | 0.74 | 0.34 | 0.0603 | – |
| O=C(Cn1nc(Cc2ccncc2)c2ccccc2c1=O)N1CCCc2ccccc21 [SR-01000151917] | 1.92 | 1.92 | 10.70 ± 4.71 | > 14.1 | 0.28 | 1.73 | 3.34 | 3.33 | 0.537 | 110.81 ± 5.15 | – | – | – | – | – | – | – | – | – | – |
